21 molecules from patent publication US20050256034A1, “Dioxolane analogs for improved inter-cellular delivery” (priority 2000, published 2005) can be followed below.

“And” between values parts separate entries of the source, which are not always exact repeats. Equal values may be shown once. Read-outs that look alike come from different tables or passages of the source.

The assay is described as follows: 3H-Thymidine Incorporation Assay (24 hr drug, wash, another 48 hr; 72 hr assay). Format: cell-based. Conditions: for Factor (Resistance Factor = Ratio of dCK- on Wild-type CCRF-CEM) / Resistance Factor = Ratio of dCK- on Wild-type CCRF-CEM: ratio of IC50 CEM/dCK- to IC50 CCRF-CEM; for Factor (Resistance Factor = Ratio of dCK- on Wild-type CCRF-CEM): 24 h exposure. (Incorporation of labelled thymidine or its analogues reports DNA synthesis.)

Where [1] appears, read: CCRF-CEM, read-out: IC50 (3H-TdR incorporation at 72 hr) CCRF-CEM 24 h, CCRF-CEM T-cell leukemia, 24 hr exposure to drug, wash, another 48 hr.
[2] abbreviates: CCRF-CEM, read-out: IC50 (3H-TdR incorporation at 72 hr) CEM/dCK- 24 h, CEM/dCK- (CCRF-CEM deoxycytidine kinase-deficient), 24 hr exposure to drug, wash, another 48 hr.
[3] abbreviates: MCF7, read-out: IC50 (3H-TdR incorporation at 72 hr) MCF-7 24 h, MCF-7 human breast carcinoma, 24 hr exposure to drug, wash, another 48 hr.
Where [4] appears, read: NCI-H460, read-out: IC50 (3H-TdR incorporation at 72 hr) H-460 24 h, H-460 human lung carcinoma, 24 hr exposure to drug, wash, another 48 hr.
Where [5] appears, read: SF-268, read-out: IC50 (3H-TdR incorporation at 72 hr) SF-268 24 h, SF-268 human central nervous system tumor, 24 hr exposure to drug, wash, another 48 hr.
Setting [6] is: read-out: IC50 (3H-TdR incorporation at 72 hr) H-460 24 h, H-460 human lung carcinoma, 24 hr exposure to drug, wash, another 48 hr.
[7] abbreviates: read-out: IC50 (3H-TdR incorporation at 72 hr) MCF-7 24 h, MCF-7 human breast carcinoma, 24 hr exposure to drug, wash, another 48 hr.

As to `Nc1ccn([C@@H]2CO[C@H](COC(=S)Oc3ccccc3)O2)c(=O)n1` [Compound 147, THIOCARBONIC ACID O-[4(S)-(4′-A- MINO-2′-OXO-2H-PYRI- MIDIN-1′-YL)-[1,3]DI- OXOLAN-2(S)-YL- METHYL]ESTER O-PHENYL ESTER], the “Factor (Resistance Factor = Ratio of dCK- on Wild-type CCRF-CEM)” value was >4 000.

On to `CC(=O)OCC1OC2OC(C)(OC[C@H]3OC[C@@H](n4ccc(NC(=O)OCc5ccccc5)nc4=O)O3)OC2C(OC(C)=O)C1OC(C)=O` (some centres unmarked) [Compound 148, Acetic acid 6-acetoxy-5-acetoxy-methyl-2-[4-(4-benzyl-oxycarbonylamino-2-ox-o-2H-pyrimidin-1-yl)-[1,3]di-oxolan-2-ylmeth-oxy]-2-methyl-tetra-hydro-[1,3]di-oxolo[4,5-b]py-ran-7-yl ester], for which the “Factor (Resistance Factor = Ratio of dCK- on Wild-type CCRF-CEM)” value came to 4.

On to `CC(C(=O)OC[C@H]1OC[C@@H](n2ccc(N)nc2=O)O1)C(c1ccccc1)c1ccccc1` (stereo partly drawn) [Compound 157, (2S,4S)-(3″-DIPHENYL-2″-METHYL- PROPIOXYMETHYL)-4-CYTO- SIN-1′-YL-1,3-DI- OXOLANE], for which the Factor (Resistance Factor = Ratio of dCK- on Wild-type CCRF-CEM) was more than 8330.

In the case of `CCOC(OCC)(OC[C@H]1OC[C@@H](n2ccc(N)nc2=O)O1)c1ccccc1` [Compound 170, 4-AMINO-1-[2-(DIETHOXY-PHE- NYL-METHOXYMETHYL)-[1,3]DI- OXOLAN-4-YL]-1H-PYRI- MIDIN-2-ONE], the “Resistance Factor = Ratio of dCK- on Wild-type CCRF-CEM” value was more than 476. Besides, the IC50 under setting [1] turned out to be 0.21 µM. Moreover, the IC50 under setting [2] is more than 100 µM. Besides, the IC50 under setting [3] came to 0.49 µM. Further, under setting [4], the IC50 was 0.63 µM. The IC50 under setting [5] is 1 µM.

As to `COC(OC)(OC)OC[C@H]1OC[C@@H](n2ccc(N)nc2=O)O1` [Compound 177, 4-AMINO-1-(2-TRI- METHOXYMETHOXYMETHYL-[1,3]DI- OXOLAN-4-YL)-1H-PYRI- MIDIN-2-ONE], the Resistance Factor = Ratio of dCK- on Wild-type CCRF-CEM is more than 1050.

Take `O=C(Nc1ccn([C@@H]2CO[C@H](COC(=O)OCc3ccc([N+](=O)[O-])cc3)O2)c(=O)n1)OCc1ccc([N+](=O)[O-])cc1` [Compound 181, CARBONIC ACID 4-NITRO-BENZYL ESTER 4-[4-(4-NITRO-BENZYL- OXYCARBONYLAMINO)-2-OX- O-2H-PYRIMIDIN-1-YL]-[1,3]DI- OXOLAN-2-YLMETHYL ESTER]: the “Resistance Factor = Ratio of dCK- on Wild-type CCRF-CEM” value was more than 2700. Further, the IC50 under setting [1] is 0.037 µM. Further, the IC50 under setting [2] is more than 100 µM. The IC50 under setting [3] is 0.49 µM. For the same molecule, the IC50 under setting [4] stood at 0.14 µM. For the same molecule, the IC50 under setting [5] was 0.17 µM.

In the case of `Nc1ccn([C@@H]2CO[C@H](COC(=O)c3ccc(Cl)c(Cl)c3)O2)c(=O)n1` [Compound 187, 3,4-DICHLORO-BENZOIC ACID 4-(4-AMINO-2-OXO-2H-PYRI- MIDIN-1-YL)-[1,3]DI- OXOLAN-2-YL METHYL ESTER], the IC50 under setting [4] was 0.0014 µM; the IC50 (read-out: IC50 (3H-TdR incorporation at 72 hr) CCRF-CEM 24 h, CCRF-CEM T-cell leukemia, 24 hr exposure to drug, wash, another 48 hr) turned out to be 0.0016 µM; the IC50 under setting [6] amounted to 0.0011 µM; the IC50 under setting [7] was 0.0051 µM.

Turning to `Nc1ccn([C@@H]2CO[C@H](COC(=O)c3ccc(C(F)(F)F)cc3)O2)c(=O)n1` [Compound 189, 4-TRIFLUOROMETHYL-BENZOIC ACID 4-(4-A- MINO-2-OXO-2H-PYRI- MIDIN-1-YL)-[1,3]DI- OXOLAN-2-YL METHYL ESTER], the IC50 reads like this: under setting [3], 0.0033 µM; under setting [4], 0.0012 µM; under setting [6], 0.00068 µM; under setting [7], 0.0037 µM.

`Nc1ccn([C@@H]2CO[C@H](COC(=O)c3ccccc3F)O2)c(=O)n1` [Compound 190, 2-FLUORO-BENZOIC ACID 4-(4-AMINO-2-OXO-2H-PYRI- MIDIN-1-YL)-[1,3]DI- OXOLAN-2-YL METHYL ESTER]: the IC50 under setting [2] stood at 9.8 µM, the IC50 under setting [3] worked out at 0.027 µM, the IC50 under setting [6] worked out at 0.0039 µM and the IC50 under setting [7] amounted to 0.016 µM.

As to `CC(C)(C)OC(=O)NCCCCCC(=O)Nc1ccn([C@@H]2CO[C@H](CO)O2)c(=O)n1` [Compound 193, {5-[1-(2-HYDROXYMETHYL-[1,3]DI- OXOLAN-4-YL)-2-OX- O-1,2-DIHYDRO-PYRI- MIDIN-4-YLCARBA- MOYL]-PENTYL}-CARBAMIC ACID TERT-BUTYL ESTER], the Resistance Factor = Ratio of dCK- on Wild-type CCRF-CEM is more than 1700.

Take `COc1ccc(C(OC)(OC)OC[C@H]2OC[C@@H](n3ccc(N)nc3=O)O2)cc1` [Compound 195, 4-AMINO-1-{2-[DI- METHOXY-(4-METHOXY-PHE- NYL)-METHOXYMETHYL]-[1,3]DI- OXOLAN-4-YL}-1#H!-PYRI- MIDIN-2-ONE]: the Resistance Factor = Ratio of dCK- on Wild-type CCRF-CEM is more than 1560.

Turning to `CCOC(OCC)(OCC)OC[C@H]1OC[C@@H](n2ccc(N)nc2=O)O1` [Compound 199, 4-Amino-1-(2-tri-ethoxymethoxymethyl-[1,3]di-oxolan-4-yl)-1H-pyri-midin-2-one], the Resistance Factor = Ratio of dCK- on Wild-type CCRF-CEM was more than 10600.

As for `CC(=O)Oc1ccc(COC(=O)Nc2ccn([C@@H]3CO[C@H](COC(=O)OCc4ccc(OC(C)=O)cc4)O3)c(=O)n2)cc1` [Compound 202, Acetic acid 4-(1-{2-[4-(Acetyloxy)benzyloxycarbonyloxymethyl]-[1,3]dioxolan-4-yl}2-oxo-1,2-dihydropyrimidin-4-ylcarbamoyloxymethyl)-phenyl ester], the Resistance Factor = Ratio of dCK- on Wild-type CCRF-CEM is more than 1000.

Regarding `Nc1ccn([C@@H]2CO[C@H](COC(=O)c3ccc([N+](=O)[O-])cc3)O2)c(=O)n1` [Compound 204, 4-NITRO-BENZOIC ACID 4-(4-A- MINO-2-OXO-2H-PYRI- MIDIN-1-YL)-[1,3]DI- OXOLAN-2-YL METHYL ESTER], the “Resistance Factor = Ratio of dCK- on Wild-type CCRF-CEM” value is on record as 1 600. Moreover, under setting [1], the IC50 amounted to 0.012 µM. Besides, the IC50 under setting [2] came out at 19 µM. Besides, the IC50 under setting [3] was found to be 0.0086 µM. Under setting [4], the IC50 was 0.015 µM. The IC50 under setting [5] was found to be 0.025 µM.

On to `Nc1ccn([C@@H]2CO[C@H](COC(=O)c3ccccc3Cc3ccccc3)O2)c(=O)n1` [Compound 220, BIPHENYL-2-CARBOXYLIC ACID 4-(4-AMINO-2-OXO-2H-PYRI- MIDIN-1-YL)-[1,3]DI- OXOLAN-2-YL METHYL ESTER], for which the Resistance Factor = Ratio of dCK- on Wild-type CCRF-CEM was more than 28600.

With `Nc1ccn([C@@H]2CO[C@H](COC(=O)C3(c4ccccc4)CC3)O2)c(=O)n1` [Compound 223, 1-PHENYL-CYCLO- PROPANECARBOXYLIC ACID 4-(4-AMINO-2-OXO-2H-PYRI- MIDIN-1-YL)-[1,3]DI- OXOLAN-2-YL METHYL ESTER], the Resistance Factor = Ratio of dCK- on Wild-type CCRF-CEM is more than 1610.

Consider `CC(C)(C(=O)OC[C@H]1OC[C@@H](n2ccc(N)nc2=O)O1)c1ccccc1[N+](=O)[O-].Cl` [Compound 224, 2-METHYL-2-(2-NITRO-PHE- NYL)-PROPIONIC ACID 4-(4-AMINO-2-OXO-2H-PYRI- MIDIN-1-YL)-[1,3]DI- OXOLAN-2-YLMETHYL ESTER HYDROCHLORIDE SALT], for which the Resistance Factor = Ratio of dCK- on Wild-type CCRF-CEM is more than 1000. Moreover, the IC50 under setting [1] was determined as 0.1 µM. The IC50 under setting [3] stood at 6.9 µM. For the same molecule, the IC50 under setting [4] was 5.3 µM. Moreover, under setting [5], the IC50 amounted to 21 µM.

Consider `CCCCC[C@H]1CC[C@H](C(=O)OC[C@H]2OC[C@@H](n3ccc(N)nc3=O)O2)CC1` [Compound 240, 4-PENTYL-CYCLO- HEXANECARBOXYLIC ACID 4-(4-AMINO-2-OXO-2H-PYRI- MIDIN-1-YL)-[1,3]DI- OXOLAN-2-YL METHYL ESTER], for which the “Resistance Factor = Ratio of dCK- on Wild-type CCRF-CEM” value is reported as “≧25 000”.

Regarding `CC(CCCCCCc1ccccc1)C(=O)OC[C@H]1OC[C@@H](n2ccc(N)nc2=O)O1` (some centres unmarked) [Compound 245, 2-METHYL-8-PHENYL-OCTANOIC ACID 4-(4-AMINO-2-OXO-2H-PYRI- MIDIN-1-YL)-[1,3]DI- OXOLAN-2-YL METHYL ESTER], the Resistance Factor = Ratio of dCK- on Wild-type CCRF-CEM was more than 6800.

For the molecule `CC(C)CCCCC(=O)Nc1ccn([C@@H]2CO[C@H](COC(=O)CCCCC(C)C)O2)c(=O)n1` [Compound 276, 6-METHYL-HEPTANOIC ACID 4-[4-(6-METHYL-HEPTANOYL- AMINO)-2-OXO-2H-PYRI- MIDIN-1-YL]-[1,3]DI- OXOLAN-2-YL METHYL ESTER], the “Factor (Resistance Factor = Ratio of dCK- on Wild-type CCRF-CEM)” value is 957. Besides, under “CCRF-CEM, read-out: IC50 in μM (3H-TdR incorporation at 72 hr) CCRF-CEM 24 h, CCRF-CEM T-cell leukemia, 24 h exposure to drug, wash, another 48 hr”, the IC50 was determined as 0.028 µM. The IC50 (MCF7, read-out: IC50 in μM (3H-TdR incorporation at 72 hr) MCF-7 (72 h), MCF-7 human breast carcinoma, 72 h exposure) amounted to 0.0017 µM. Besides, the IC50 (NCI-H460, read-out: IC50 in μM (3H-TdR incorporation at 72 hr) H-460 (72 h), H-460 human lung carcinoma, 72 h exposure) was determined as 0.025 µM. For the same molecule, where the note is “SF-268, read-out: IC50 in μM (3H-TdR incorporation at 72 hr) SF-268 (72 h), SF-268 human central nervous system tumor, 72 h exposure”, the IC50 came out at 0.018 µM.

Regarding `CC(C)(C)C(=O)OC[C@H]1OC[C@@H](n2ccc(N)nc2=O)O1` [Compound 279, 2,2-DIMETHYL-PROPIONIC ACID 4-(4-AMINO-2-OXO-2H-PYRI- MIDIN-1-YL)-[1,3]DI- OXOLAN-2-YL METHYL ESTER], the “Factor (Resistance Factor = Ratio of dCK- on Wild-type CCRF-CEM)” value was 1854 and >1205.
